Measurements published in patent US10584115B2, “Substituted pyridine and pyrazine BMI-1 inhibitors” (PTC Therapeutics, Inc., priority 2013, dated 2020).

Each compound was assayed on Bmi-1 protein (assay: Sandwich ELISA Assay (Bmi-1 protein level in HT-1080 cells after compound treatment)). Details: Table 1, Bmi-1 sandwich ELISA, read-out: ELISA EC50 value for Bmi-1 protein.
Type: cell-based
Method in brief: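 HT-1080 cells exposed to compounds for 40–48 h at 37 °C (0.5% DMSO final), then lysed. Bmi-1 in lysates measured by sandwich ELISA (mouse monoclonal capture, rabbit anti-Bmi-1 detection, HRP anti-rabbit, TMB), read at OD450 with OD570 reference against a recombinant Bmi-1 standard curve (0–8000 pg/mL).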

Row | SMILES | EC50 [nM]
1 | O=[N+]([O-])c1cc(Nc2ccc(C(F)(F)F)cc2)nc(-c2c(C(F)(F)F)nc3ccccn23)c1 [compound 158, 4-nitro-6-[2-(trifluoromethyl)imidazo[1,2-a]pyridin-3-yl]-N-[4-(trifluoromethyl)phenyl]pyridin-2-amine] | 10 to 100
2 | Nc1cc(Nc2ccc(C(F)(F)F)cc2)nc(-c2c(C(F)(F)F)nc3ccccn23)c1 [compound 159, 6-[2-(trifluoromethyl)imidazo[1,2-a]pyridin-3-yl]-N^2-[4-(trifluoromethyl)phenyl]pyridine-2,4-diamine] | 1 to 10
3 | OCCNc1cc(Nc2ccc(C(F)(F)F)cc2)nc(-c2c(C(F)(F)F)nc3ccccn23)c1 [compound 160, 2-[(2-[2-(trifluoromethyl)imidazo[1,2-a]pyridin-3-yl]-6-{[4-(trifluoromethyl)phenyl]amino}pyridin-4-yl)amino]ethanol] | 10 to 100
4 | COCCNc1cc(Nc2ccc(C(F)(F)F)cc2)nc(-c2c(C(F)(F)F)nc3ccccn23)c1 [compound 161, N^4-(2-methoxyethyl)-6-[2-(trifluoromethyl)imidazo[1,2-a]pyridin-3-yl]-N^2-[4-(trifluoromethyl)phenyl]pyridine-2,4-diamine] | 10 to 100
5 | Cc1cc2ccccc2n1-c1cncc(Nc2ccc(OC(F)F)cc2)n1 [compound 163, N-[4-(difluoromethoxy)phenyl]-6-(2-methyl-1H-indol-1-yl)pyrazin-2-amine] | 100 to 3000
6 | COc1ccc(Nc2cncc(-n3c(C)cc4ccccc43)n2)cc1 [compound 164, N-(4-methoxyphenyl)-6-(2-methyl-1H-indol-1-yl)pyrazin-2-amine] | 10 to 100
7 | O=[N+]([O-])c1cc(Nc2ccc(OC(F)F)cc2)nc(-c2c(C(F)(F)F)nc3ccccn23)c1 [compound 169, N-[4-(difluoromethoxy)phenyl]-4-nitro-6-[2-(trifluoromethyl)imidazo[1,2-a]pyridin-3-yl]pyridin-2-amine] | 10 to 100
8 | Nc1cc(Nc2ccc(OC(F)F)cc2)nc(-c2c(C(F)(F)F)nc3ccccn23)c1 [compound 170, N^2-[4-(difluoromethoxy)phenyl]-6-[2-(trifluoromethyl)imidazo[1,2-a]pyridin-3-yl]pyridine-2,4-diamine] | 100 to 3000
9 | OCCNc1cc(Nc2ccc(OC(F)F)cc2)nc(-c2c(C(F)(F)F)nc3ccccn23)c1 [compound 171] | 10 to 100
10 | COCCNc1cc(Nc2ccc(OC(F)F)cc2)nc(-c2c(C(F)(F)F)nc3ccccn23)c1 [compound 172, N^2-[4-(difluoromethoxy)phenyl]-N^4-(2-methoxyethyl)-6-[2-(trifluoromethyl)imidazo[1,2-a]pyridin-3-yl]pyridine-2,4-diamine] | 10 to 100
11 | CSc1cc(Nc2ccc(C(F)(F)F)cc2)nc(-c2c(C(F)(F)F)nc3ccccn23)c1 [compound 173, 4-(methylsulfanyl)-6-[2-(trifluoromethyl)imidazo[1,2-a]pyridin-3-yl]-N-[4-(trifluoromethyl)phenyl]pyridin-2-amine] | 100 to 3000
12 | COc1ccc(Nc2cccc(-n3c(C)cc4ccccc43)n2)cc1 [compound 174, N-(4-methoxyphenyl)-6-(2-methyl-1H-indol-1-yl)pyridin-2-amine] | 100 to 3000
13 | Cc1nc2ccccc2n1-c1cncc(Nc2ccc(C(N)=O)cc2)n1 [compound 185, 4-{[6-(2-methyl-1H-benzimidazol-1-yl)pyrazin-2-yl]amino}benzamide] | 100 to 3000
14 | CNc1nc2ccccc2n1-c1cncc(Nc2ccc(OC(F)F)cc2)n1 [compound 187, 1-(6-{[4-(difluoromethoxy)phenyl]amino}pyrazin-2-yl)-N-methyl-1H-benzimidazol-2-amine] | 1 to 10
15 | N#Cc1nc2ccccc2n1-c1cncc(Nc2ccc(OC(F)F)cc2)n1 [compound 188, 1-(6-{[4-(difluoromethoxy)phenyl]amino}pyrazin-2-yl)-1H-benzimidazole-2-carbonitrile] | 10 to 100
16 | FC(F)(F)c1ccc(Nc2cccc(-c3c(C(F)(F)F)nc4cnccn34)n2)cc1 [compound 194, 6-[2-(trifluoromethyl)imidazo[1,2-a]pyrazin-3-yl]-N-[4-(trifluoromethyl)phenyl]pyridin-2-amine] | 10 to 100
17 | FC(F)(F)Oc1ccc(Nc2cccc(-c3c(C(F)(F)F)nc4cnccn34)n2)cc1 [compound 195, N-[4-(trifluoromethoxy)phenyl]-6-[2-(trifluoromethyl)imidazo[1,2-a]pyrazin-3-yl]pyridin-2-amine] | 100 to 3000
18 | FC(F)Oc1ccc(Nc2cccc(-c3c(C(F)(F)F)nc4cnccn34)n2)cc1 [compound 196, N-[4-(difluoromethoxy)phenyl]-6-[2-(trifluoromethyl)imidazo[1,2-a]pyrazin-3-yl]pyridin-2-amine] | 10 to 100
19 | O=[N+]([O-])c1cc(Nc2ccc(OC(F)(F)F)cc2)nc(-c2c(C(F)(F)F)nc3ccccn23)c1 [compound 197, 4-nitro-N-[4-(trifluoromethoxy)phenyl]-6-[2-(trifluoromethyl)imidazo[1,2-a]pyridin-3-yl]pyridin-2-amine] | 10 to 100
20 | Nc1cc(Nc2ccc(OC(F)(F)F)cc2)nc(-c2c(C(F)(F)F)nc3ccccn23)c1 [compound 198, N^2-[4-(trifluoromethoxy)phenyl]-6-[2-(trifluoromethyl)imidazo[1,2-a]pyridin-3-yl]pyridine-2,4-diamine] | 10 to 100
21 | FC(F)(F)c1nc2ccccn2c1-c1cncc(Nc2cnc(Cl)nc2)n1 [compound 200, 2-chloro-N-{6-[2-(trifluoromethyl)imidazo[1,2-a]pyridin-3-yl]pyrazin-2-yl}pyrimidin-5-amine] | 100 to 3000
22 | Oc1ccc(Nc2cncc(-c3c(C(F)(F)F)nc4ccccn34)n2)cc1 [compound 207, 4-({6-[2-(trifluoromethyl)imidazo[1,2-a]pyridin-3-yl]pyrazin-2-yl}amino)phenol] | 100 to 3000
23 | N#Cc1cc(Nc2ccc(C(F)(F)F)cc2)nc(-c2c(C(F)(F)F)nc3ccccn23)c1 [compound 210, 2-[2-(trifluoromethyl)imidazo[1,2-a]pyridin-3-yl]-6-{[4-(trifluoromethyl)phenyl]amino}pyridine-4-carbonitrile] | 10 to 100

Further lines, results first:

Row | EC50 [nM] | SMILES
24 | 100 to 3000 | Cc1cc2ccccc2n1-c1cncc(Nc2ccc(C(F)(F)F)cc2)n1 [compound 162]
25 | 100 to 3000 | Cc1nc2cnccc2n1-c1cncc(Nc2ccc(C(F)(F)F)cc2)n1 [compound 166, 6-(2-methyl-1H-imidazo[4,5-c]pyridin-1-yl)-N-[4-(trifluoromethyl)phenyl]pyrazin-2-amine]
26 | 100 to 3000 | CSc1nc2ccccc2n1-c1cncc(Nc2ccc(OC(F)(F)F)cc2)n1 [compound 167, 6-[2-(methylsulfanyl)-1H-benzimidazol-1-yl]-N-[4-(trifluoromethoxy)phenyl]pyrazin-2-amine]
27 | 10 to 100 | Cc1ccc(Nc2cncc(-c3c(C(F)(F)F)nc4cnccn34)n2)cc1 [compound 168, N-(4-methylphenyl)-6-[2-(trifluoromethyl)imidazo[1,2-a]pyrazin-3-yl]pyrazin-2-amine]
28 | 10 to 100 | CCc1nc2cc(F)c(F)cc2n1-c1cncc(Nc2ccc(C(F)(F)F)cc2)n1 [compound 177, 6-(2-ethyl-5,6-difluoro-1H-benzimidazol-1-yl)-N-[4-(trifluoromethyl)phenyl]pyrazin-2-amine]
29 | 10 to 100 | CSc1nc2ccccc2n1-c1cncc(Nc2ccc(OC(F)F)cc2)n1 [compound 181, N-[4-(difluoromethoxy)phenyl]-6-[2-(methylsulfanyl)-1H-benzimidazol-1-yl]pyrazin-2-amine]
30 | 10 to 100 | Fc1cc2nc(C3CC3)n(-c3cncc(Nc4ccc(C(F)(F)F)cc4)n3)c2cc1F [compound 182, 6-(2-cyclopropyl-5,6-difluoro-1H-benzimidazol-1-yl)-N-[4-(trifluoromethyl)phenyl]pyrazin-2-amine]
31 | 10 to 100 | CNc1nc2ccccc2n1-c1cncc(Nc2ccc(OC(F)(F)F)cc2)n1 [compound 183, N-methyl-1-(6-{[4-(trifluoromethoxy)phenyl]amino}pyrazin-2-yl)-1H-benzimidazol-2-amine]
32 | 100 to 3000 | N#Cc1nc2ccccc2n1-c1cncc(Nc2ccc(OC(F)(F)F)cc2)n1 [compound 184, 1-(6-{[4-(trifluoromethoxy)phenyl]amino}pyrazin-2-yl)-1H-benzimidazole-2-carbonitrile]
33 | 100 to 3000 | CNC(=O)c1ccc(Nc2cncc(-n3c(C)nc4ccccc43)n2)cc1 [compound 186, N-methyl-4-{[6-(2-methyl-1H-benzimidazol-1-yl)pyrazin-2-yl]amino}benzamide]
34 | 1 to 10 | CSc1nc2ccccn2c1-c1cncc(Nc2ccc(C(F)(F)F)cc2)n1 [compound 191, 6-[2-(methylsulfanyl)imidazo[1,2-a]pyridin-3-yl]-N-[4-(trifluoromethyl)phenyl]pyrazin-2-amine]
35 | 10 to 100 | Cc1nc2cc(Cl)c(Cl)cc2n1-c1cncc(Nc2ccc(OC(F)(F)F)cc2)n1 [compound 192, 6-(5,6-dichloro-2-methyl-1H-benzimidazol-1-yl)-N-[4-(trifluoromethoxy)phenyl]pyrazin-2-amine]
36 | 10 to 100 | Cc1nc2cc(Cl)c(Cl)cc2n1-c1cncc(Nc2ccc(C(F)(F)F)cc2)n1 [compound 193, 6-(5,6-dichloro-2-methyl-1H-benzimidazol-1-yl)-N-[4-(trifluoromethyl)phenyl]pyrazin-2-amine]
37 | 1 to 10 | Cc1nc2cc(F)c(F)cc2n1-c1cncc(Nc2ccc(OC(F)F)cc2)n1 [compound 199, N-[4-(difluoromethoxy)phenyl]-6-(5,6-difluoro-2-methyl-1H-benzimidazol-1-yl)pyrazin-2-amine]
38 | 10 to 100 | Cc1nc2ccccc2n1-c1cncc(Nc2ccc(C(F)(F)F)c(F)c2)n1 [compound 209, N-[3-fluoro-4-(trifluoromethyl)phenyl]-6-(2-methyl-1H-benzimidazol-1-yl)pyrazin-2-amine]
